21 molecules from patent US6495576B2, “Aminal diones as potassium channel openers” (Abbott Laboratories, priority 2001, dated 2002) can be followed below.

For this experiment, the system named is Landrace pig bladder strips. Description: Functional potassium channel opening activity in isolated, field-stimulated bladder strips. The following applies: for Index: ED50 for P1075 divided by ED50 for test agonist in a given tissue, averaged; for EC50: amount causing 50% of the agent's maximal response, field stimulation 0.05 Hz, 0.5 ms, 20 volts, read-out: ED50 (the source's name); for Emax / Efficacy (%P1075): maximal efficacy on stimulated twitch, relative to P1075. On the procedure: Compound were evaluated for functional potassium channel opening activity using tissue strips obtained from Landrace pig bladders.
Landrace pig bladders were obtained from female Landrace pigs of 9-30 kg. Landrace pig were euthanized with an intraperitoneal injection of pentobarbital solution, Somlethal ®, J. A. Webster Inc. Sterling Mass. The entire bladder was removed and immediately placed into Krebs Ringer bicarbonate solution (composition, mM: NaCl, 120; NaHCO3, 20; dextrose, 11; KCl, 4.7; CaCl2, 2.5; MgSO4, 1.5; KH2PO4, 1.2; K2EDTA, 0.01, equilibrated with 5% CO2/95% O2 pH 7.4 at 37° C.). Propranolol (0.004 mM) was included in all of the assays to block β-adrenoceptors. The trigonal and dome portions were discarded. Strips 3-5 mm wide and 20 mm long were prepared from the remaining tissue cut in a circular fashion. The mucosal layer was removed. One end was fixed to a stationary glass rod and the other to a Grass FT03 transducer at a basal preload of 1.0 gram. Two parallel platinum electrodes were included in the stationary glass rod to provide field stimulation of 0.05 Hz, 0.5 milli-seconds at 20 volts. This low frequency stimulation produced a stable twitch response of 100-500 centigrams. Tissues were allowed to equilibrate for at least 60 minutes and primed with 80 mM KCl. A control concentration response curve (cumulative) was generated for each tissue using the potassium channel opener P1075 as the control agonist. […] After a 60 minute rinsing period, a concentration response curve (cumulative) was generated for the test agonist in the same fashion as that used for control agonist P1075. The maximal efficacy of each compound (expressed as % relative to P1075) is reported. The amount of agent necessary to cause 50% of the agent's maximal response (ED50) was calculated using “ALLFIT” (DeLean et al., Am. J. Physiol., 235, E97 (1980)), hereby incorporated by reference. Agonist potencies were also expressed as an index relative to P1075. The index was calculated by dividing the ED50 for P1075 by the ED50 for the test agonist in a given tissue. Each tissue was used for only one test agonist, and the indices obtained from each tissue were averaged to provide an average index of potency.

Read-outs that look alike come from different tables or passages of the source.

As usually defined, the Emax is the greatest response seen or fitted, relative to the assay's reference. Molecule `CC(C)(C)CC(NC(=O)c1cccc(Cl)c1)Nc1c(Nc2cccnc2)c(=O)c1=O` (stereo not drawn) [Example 64, 3-Chloro-N-(1-{[3,4-dioxo-2-(3 pyridinylamino)-1-cyclobuten-1-yl]amino}-3,3-dimethylbutyl)benzamide] yielded an Index of 0.025. Also, for the setting “Sus scrofa”, the EC50 came to 4.2 µM and the Emax came out at 76%.
For `CC(C)(C)C(NC(=O)c1cccc(Br)c1)Nc1c(Nc2cccnc2)c(=O)c1=O` (stereo not drawn) [Example 66, 3-Bromo-N-(1-{[3,4-dioxo-2-(3-pyridinylamino)-1-cyclobuten-1-yl]amino}-2,2-dimethylpropyl)benzamide] the same measures were 0.040, 4.2 µM and 74%.
The molecule `O=C(NC(Nc1c(Nc2cccnc2)c(=O)c1=O)C(F)(F)C(F)(F)F)c1cccc(Cl)c1` (stereo not drawn) [Example 26, 3-Chloro-N-(1-{[3,4-dioxo-2-(3-pyridinylamino)-1-cyclobuten-1-yl]amino}−2,2,3,3,3-pentafluoropropyl)benzamide] displayed an Index of 0.64.
For `CC(C)(C)C(NC(=O)CCc1ccccc1)Nc1c(Nc2cccnc2Cl)c(=O)c1=O` (stereo not drawn) [Example 87, N-[1-({2-[(2-chloropyridin-3-yl)amino]-3,4-dioxo-1-cyclobuten-1-yl}amino)-2,2-dimethylpropy1]-3-phenylpropanamide], the Index came to 0.039, the EC50 stood at 1.9 µM and the “Efficacy (%P1075)” value is recorded as 96 %P1075.
`CC(C)(C)C(NC(=O)c1cccc(I)c1)Nc1c(Nc2cccnc2)c(=O)c1=O` (stereo not drawn) [Example 8, N-(1-{[3,4-Dioxo-2-(3-pyridinylamino)-1-cyclobuten-1-yl]amino}-2,2-dimethylpropyl)-3-iodobenzamide] gave an Index of 0.047.
`CC(Cl)(Cl)C(NC(=O)c1cc(F)cc(F)c1)Nc1c(Nc2cccnc2)c(=O)c1=O` (stereo not drawn) [Example 51, N-(2,2-Dichloro-1-{[3,4dioxo-2-(3-pyridinylamino)-1-cyclobuten-1-yl]amino}propyl)-3,5-difluorobenzamide]: the Index is 0.080. Further, for the setting “Sus scrofa”, the EC50 stood at 1.4 µM and the Emax was 96%.
Consider `CC(C)(C)C(NC(=O)c1cccc(Cl)c1)Nc1c(Nc2cccnc2)c(=O)c1=O` (stereo not drawn) [Example 5, 3-chloro-N-(1-{[3,4-Dioxo-2-(3-pyridinylamino)-1-cyclobuten-1-yl]amino}-2,2-dimethylpropyl)benzamide], for which the Index came out at 0.059.
On to `CC(C)(Cc1ccccc1)C(NC(=O)c1ccccc1)Nc1c(Nc2cccnc2)c(=O)c1=O` (stereo not drawn) [Example 86], for which the Index was determined as 0.24, the EC50 was found to be 0.64 µM and the “Efficacy (%P1075)” value came to 85 %P1075.
For `CC(C)(C)C(NC(=O)c1cccc(Cl)c1)Nc1c(Nc2cccnc2)c(=O)c1=O` (single isomer, unassigned; (+)) [Example 56, (+) 3-Chloro-N-(1-{[3.4-dioxo-2-(3-pyridinylamino)-1-cyclobuten-1-yl]amino}-2,2-dimethylpropyl)benzamide] the same measures were 0.028, 2.2 µM and 94 %P1075.
On to `Cc1cccc(C(=O)NC(Nc2c(Nc3cccnc3Cl)c(=O)c2=O)C(C)(C)Cc2ccccc2)c1` (stereo not drawn) [Example 61, N-[1-({2[(2-Chloropyiridin-3-yl)amino]-3,4-dioxo-1-cyclobuten-1-yl}amino)-2,2-dimethyl-3-phenylpropyl]-3-methylbenzamide], for which the Index is given as 0.50, the EC50 came out at 0.47 µM and the “Efficacy (%P1075)” value stood at 64 %P1075.
Take `CC(C)(C)C(NC(=O)c1cc(Cl)cc(Cl)c1)Nc1c(Nc2cccnc2Cl)c(=O)c1=O` (stereo not drawn) [Example 79, 3,5-Dichloro-N-[1-({2-[(2-chloropyridin-3-yl)amino]-3,4-dioxocyclobut-1-en-1-yl}amino)-2,2-dimethylpropyl]benzamide]: the Index worked out at 0.024. In addition, where the note is “Sus scrofa”, the EC50 was determined as 4.6 µM and the Emax came to 60%.
Take `CC(C)(C)C(NC(=O)c1cc(F)cc(F)c1)Nc1c(Nc2cccnc2)c(=O)c1=O` (single isomer, unassigned; (-)) [Example 50, (−)N-(1-{[3,4-Dioxo-2-(3-pyridinylamino)-1-cyclobuten-1-yl]amino}-2,2-dimethylpropyl)-3,5-difluorobenzamide]: the Index stood at 0.14 and the EC50 turned out to be 6.8 µM. The molecule further returned an Emax (Sus scrofa) of 79%.
Molecule `CCC(CC)C(NC(=O)c1ccc(Cl)cc1)Nc1c(Nc2cccnc2)c(=O)c1=O` (stereo not drawn) [Example 21, 4-Chloro-N-(1-{[3,4-dioxo-2-(3-pyridinylamino)-1-cyclobuten-1-yl]amino}-2-ethylbutyl)benzamide] registered an Index of 0.092.
`CC(C)(C)C(NC(=O)c1cc(F)cc(F)c1)Nc1c(Nc2cccnc2)c(=O)c1=O` (single isomer, unassigned; (+)) [Example 49, (+)N-(1-{[3.4-Dioxo-2-(3-pyridinylamino)-1-cyclobuten-1-yl]amino}-2,2-dimethylpropyl)-3,5-difluorobenzamide]: the Index was found to be 0.071, the EC50 turned out to be 1.2 µM and the “Efficacy (%P1075)” value was determined as 100 %P1075.
In turn, `Cc1cccc(C(=O)NC(Nc2c(Nc3cccnc3Cl)c(=O)c2=O)C(C)(C)C)c1` (stereo not drawn) [Example 32, N-[1-({2-[(2-Chloro-3-pyridinyl)amino]-3,4-dioxo-1-cyclobuten-1-yl}amino)-2,2-dimethylpropyl]-3-methylbenzamide] had an Index of 0.076.
The molecule `CC(C)(C)C(NC(=O)c1cccc(F)c1)Nc1c(Nc2cccnc2)c(=O)c1=O` (stereo not drawn) [Example 7, N-(1-{[3,4-Dioxo-2-(3-pyridinylamino)-1-cyclobuten-1-yl]amino}-2,2-dimethylpropyl)-3-fluorobenzamide] gave an Index of 0.025.
As for `CCC(C)(C)N=C(NC#N)Nc1cccnc1` [Example P1075, reference compound], the “effect on stimulated twitch” value (control agonist, dose dependent, 10^−9 to 10^−5 M) is listed as “completely eliminated the stimulated twitch”.
In turn, `CC(C)(C)C(NC(=O)c1cc(Cl)cc(Cl)c1)Nc1c(Nc2cccnc2)c(=O)c1=O` (stereo not drawn) [Example 12, 3,5-Dichloro-N-(1-{[3,4-dioxo-2-(3-pyridinylamino)-1-cyclobuten-1-yl]amino}-2,2-dimethylpropyl)benzamide] yielded an Index of 0.12.
Consider `CC(C)(C)C(NC(=O)c1cccc(F)c1)Nc1c(Nc2cccnc2Cl)c(=O)c1=O` (stereo not drawn) [Example 78], for which the Index is 0.18, the EC50 worked out at 0.84 µM and the “Efficacy (%P1075)” value is listed as 98 %P1075.
For `CC(C)(Cc1ccccc1)C(NC(=O)c1ccc(Cl)cc1)Nc1c(Nc2cccnc2Cl)c(=O)c1=O` (stereo not drawn) [Example 31, 4-Chloro-N-[1-({2-[(2-chloro-3-pyridinyl)amino]-3,4-dioxo-1-cyclobuten-1-yl}amino)-2,2-dimethyl-32-phenylpropyl]benzamide] the same measures were 0.039, 2.9 µM and 76 %P1075.
In turn, `COc1cc(OC)cc(C(=O)NC(Nc2c(Nc3cccnc3)c(=O)c2=O)C(C)(C)C)c1` (stereo not drawn) [Example 13, N-(1-{[3,4-dioxo-2-(3-pyridinylamino)-1-cyclobuten-1-yl]amino}-2,2-dimethylpropyl)-3,5-dimethoxybenzamide] displayed an Index of 0.57.
